These results are taken from BindingDB's records for doi:10.1021/acs.jmedchem.5b01331 (2016).

The assay in a line: Antagonist activity at recombinant human GPR55 expressed in HEK293 cells assessed as inhibition of LPI mediated receptor activation by measuring LPI EC50 after 5 mins by xCELLigence assay (Rvb = 1.6 to 4.1 nM).
For the molecule `COc1ccc(N2CCN(CC(=O)NCn3ncc4c3-c3ccc(OC)cc3OC4(C)C)CC2)cc1`, the 50% effective concentration (EC50) (in general, the concentration that produces a half-maximal response) is 27 nM.

On to `COc1ccc2c(c1)OC(C)(C)c1cn(CNC(=O)CN3CCN(c4cccc(C)c4C)CC3)nc1-2`, for which the concentration for a half-maximal effect (EC50) stood at 30 nM.

Turning to `COc1ccc2c(c1)OC(C)(C)c1cn(CCN3CCN(C(=O)C4CCCO4)CC3)nc1-2` (centres undefined), the concentration giving a half-maximal response (EC50) turned out to be 25 nM.

Regarding `COc1ccc2c(c1)OC(C)(C)c1cnn(CCN3CCN(C(=O)c4cccs4)CC3)c1-2`, the 50% effective concentration (EC50) came to 29 nM.

For `COc1ccc2c(c1)OC(C)(C)c1cnn(CCN3CCN(C(=O)c4ccco4)CC3)c1-2`, the concentration for a half-maximal effect (EC50) came to 20 nM.

Take `COc1ccc2c(c1)OC(C)(C)c1cn(CNC(=O)CN3CCN(c4ccccc4OC)CC3)nc1-2`: the EC50 amounted to 28 nM.

Consider `COc1ccc2c(c1)OC(C)(C)c1cnn(CNC(=O)CN3CCN(c4ccccc4)CC3)c1-2`, for which the EC50 is 28 nM.

Take `COc1ccc2c(c1)OC(C)(C)c1cn(CNC(=O)CN3CCN(c4ccccc4)CC3)nc1-2`: the EC50 was 32 nM.

Consider `COc1ccc2c(c1)OC(C)(C)c1cn(CCN3CCN(C(=O)c4ccccc4)CC3)nc1-2`, for which the 50% effective concentration (EC50) worked out at 16 nM.
